Converted amounts (≈) assume the structure as drawn.
Experiments:
Streptococcus pneumoniae = assay: Bacterial susceptibility testing in liquid media (Minimum Inhibitory Concentration); format: cell-based; details: against Streptococcus pneumoniae, 37 degrees C., 24 hrs, lowest concentration able to reduce growth by 80% or more
Experimental: Compounds were tested for antimicrobial activity by susceptibility testing in liquid media. Compounds were dissolved in dimethylsulfoxide and tested in 10 doubling dilutions in the susceptibility assays. The organisms used in the assay were grown overnight on suitable agar media and then suspended in a liquid medium appropriate for the growth of the organism. The suspension was a 0.5 McFarland and a further 1 in 10 dilution was made into the same liquid medium to prepare the final organism suspension in 100 μL. Plates were incubated under appropriate conditions at 37 degrees C. for 24 hrs prior to reading. The Minimum Inhibitory Concentration was determined as the lowest drug concentration able to reduce growth by 80% or more.

| Compound | melting point [°C] | MIC (Streptococcus pneumoniae) [µg/mL] |
| --- | --- | --- |
| Cc1[nH]c(C(=O)NC2CCN(c3cc(C(=O)O)nc4ccccc34)CC2)c(Cl)c1Cl [Example 225, 4-(4-{[(3,4-Dichloro-5-methyl-1H-pyrrol-2-yl)carbonyl]amino}piperidin-1-yl)quinoline-2-carboxylic acid] | 254 to 256 | – |
| Cc1[nH]c(C(=O)NC2CCN(c3cc(C(=O)O)on3)CC2)c(Cl)c1Cl [Example 226, 3-(4-{[(3,4-Dichloro-5-methyl-1H-pyrrol-2-yl)carbonyl]amino}piperidin-1-yl)isoxazole-5-carboxylic acid] | 232 to 234 | – |
| Cc1[nH]c(C(=O)NC2CCN(c3nc(C#N)cs3)CC2)cc1Br [Example 130, 4-Bromo-N-[1-(4-cyano-1,3-thiazol-2-yl)piperidin-4-yl]-5-methyl-1H-pyrrole-2-carboxamide] | – | 2 (≈ 5.07 µM) |

Reference: patent US7709503B2, “Pyrrol derivatives with antibacterial activity” (AstraZeneca AB, priority 2003, dated 2010)
